Measurements: patent US12622901B2, “Compounds for tau protein degradation” (Dana-Farber Cancer Institute, Inc., priority 2017, dated 2026)
“Also recorded” adds a separate entry of the source. Like-named read-outs stand apart in the source and are kept apart here. Blank lines part the entries; values can stand above or below the molecule they belong to.

Assays:
tau protein [1] = biological target: T1, tau protein (Homo sapiens, UniProt P10636, A469T); assay: Tau degradation assay (western blot) in human tau-A152T neurons; assay type: cell-based
T1 construct: cultured human differentiated frontotemporal lobar dementia (FTD) neurons; endogenous in cells; host or cells: human differentiated FTD neurons, tau-A152T (line 19-5-RC6)
T1 sequence (P10636 1-441 isoform P10636-8 A152T): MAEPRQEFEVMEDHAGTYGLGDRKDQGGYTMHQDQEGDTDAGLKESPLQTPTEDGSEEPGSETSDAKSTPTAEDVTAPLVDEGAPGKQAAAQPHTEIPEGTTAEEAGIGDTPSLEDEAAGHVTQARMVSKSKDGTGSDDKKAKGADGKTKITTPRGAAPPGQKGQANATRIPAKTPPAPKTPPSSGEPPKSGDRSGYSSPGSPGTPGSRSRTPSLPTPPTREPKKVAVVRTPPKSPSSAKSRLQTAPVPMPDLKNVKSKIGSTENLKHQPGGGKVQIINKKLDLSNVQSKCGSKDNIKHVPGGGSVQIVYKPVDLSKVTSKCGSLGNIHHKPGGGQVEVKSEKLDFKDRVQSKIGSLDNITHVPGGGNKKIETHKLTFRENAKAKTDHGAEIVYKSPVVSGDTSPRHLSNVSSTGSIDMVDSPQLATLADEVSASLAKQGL
Description: Example compounds 1-12 were evaluated for their ability to degrade tau protein in cultured human differentiated frontotemporal lobar dementia (FTD) neurons. […] For each condition, 1 well of differentiated neuronal cells (6 well-plate) was washed and collected in PBS, pelleted and lysed in RIPA buffer (Boston Bio-Products) with 2% SDS (Sigma), protease inhibitors (Roche Complete Mini tablets), and phosphatase inhibitors (Sigma), followed by sonication in a water sonicator (Bransonic Ultrasonic Baths, Thomas Scientific) for 5 min, and centrifugation at 20,000 g for 15 min. Supernatants were transferred to new tubes, total protein concentration was quantified with the Pierce BCA Protein Assay Kit (Thermo), and SDS-PAGE gels were loaded with 10 μg total protein per well (pre-boiled samples). Western blots were performed with the Novex NuPAGE SDS-PAGE Gel System (Invitrogen). All samples were resolved in 7% Tris-Acetate gels with Tris-Acetate running buffer (Invitrogen). Blots were probed with antibodies against total tau (TAU5) and phosphosrylated tau (Ser396), along with β-actin as a loading control; followed by corresponding HRP-linked secondary antibodies (Cell Signaling Technology), and SuperSignal West Pico Chemiluminescent Substrate (Thermo) detection. Membranes were exposed to autoradiographic film (LabScientific) and films were scanned using an Epson Perfection V800 Photo Scanner. Protein band intensities (pixel mean intensity) were quantified using Adobe Photoshop CS5 Histogram function. Whereas the vehicle alone (DMSO) had no effect on tau, varying degrading activity was observed amongst the compounds, however with overall similar relative levels of degrading activity between tau-A152T neurons and tau-P301L neurons. Compounds were added at the doses indicated of either 0.1, 1, 5, or 10 μM.
(§1) Four-week differentiated neurons, both non-mutant (8330-8) and tau-A152T (19-5-RC6) were employed. The neurons were treated with T807 for 24 hours (at 10 μg/mL=59.4 μM). One well of differentiated neuronal cells (6 well-plate, treated or untreated) was washed and collected in PBS, pelleted and directly lysed in 200 μL of Sample Buffer (New England Biolabs) supplemented with 3X DTT, boiled for 15 min and 10 μL of each lysate was run by SDS-PAGE in a 4-12% Bis-Tris Gel, with MOPS running buffer. Blots were probed with antibodies to total tau (DA9) and phosphorylated tau (Ser396, PHF1, AT8) along with GAPDH as a loading control.
Example compounds 2-5 were reevaluated for their ability to degrade tau protein in human FTD neurons as well as evaluate their effect on E3 ubiquitin ligases CRBN, VHL, and CHIP (FIG. 4A-E). For each control and treatment, 1 well of differentiated neuronal cells (6 well-plate) was washed and collected in PBS, pelleted and lysed in RIPA buffer (Boston Bio-Products) with 2% SDS (Sigma), protease inhibitors (Roche Complete Mini tablets), and phosphatase inhibitors (Sigma), followed by sonication in a water sonicator (Bransonic Ultrasonic Baths, Thomas Scientific) for 5 min, and centrifugation at 20,000 g for 15 min. Supernatants were transferred to new tubes, total protein concentration was quantified with the Pierce BCA Protein Assay Kit (Thermo), and SDS-PAGE gels were loaded with 10 μg total protein per well (pre-boiled samples). […] Protein band intensities (pixel mean intensity) were quantified using Adobe Photoshop CS5 Histogram function. […]

A152T neurons [2] = assay: Neuronal viability / rescue of stress vulnerability to β-amyloid (1-42) peptide; conditions: A152T neurons differentiated 8 weeks; compound alone; FIG. 7
tau protein [3] = biological target: T2, tau protein (Homo sapiens, UniProt P10636, P618L); assay: Tau degradation assay (western blot) in human tau-P301L neurons; assay type: cell-based
T2 construct: cultured human differentiated frontotemporal lobar dementia (FTD) neurons; endogenous in cells; host or cells: human differentiated FTD neurons, tau-P301L
T2 sequence (P10636 1-441 isoform P10636-8 P301L): as the sequence (P10636 1-441 isoform P10636-8 A152T) above, with T152A, P301L counted along it
Description: Example compounds 1-12 were evaluated for their ability to degrade tau protein in cultured human differentiated frontotemporal lobar dementia (FTD) neurons. […] For each condition, 1 well of differentiated neuronal cells (6 well-plate) was washed and collected in PBS, pelleted and lysed in RIPA buffer (Boston Bio-Products) with 2% SDS (Sigma), protease inhibitors (Roche Complete Mini tablets), and phosphatase inhibitors (Sigma), followed by sonication in a water sonicator (Bransonic Ultrasonic Baths, Thomas Scientific) for 5 min, and centrifugation at 20,000 g for 15 min. Supernatants were transferred to new tubes, total protein concentration was quantified with the Pierce BCA Protein Assay Kit (Thermo), and SDS-PAGE gels were loaded with 10 μg total protein per well (pre-boiled samples). Western blots were performed with the Novex NuPAGE SDS-PAGE Gel System (Invitrogen). […] Protein band intensities (pixel mean intensity) were quantified using Adobe Photoshop CS5 Histogram function. […]
Example compounds 2-5 were reevaluated for their ability to degrade tau protein in human FTD neurons as well as evaluate their effect on E3 ubiquitin ligases CRBN, VHL, and CHIP (FIG. 4A-E). […] Supernatants were transferred to new tubes, total protein concentration was quantified with the Pierce BCA Protein Assay Kit (Thermo), and SDS-PAGE gels were loaded with 10 μg total protein per well (pre-boiled samples). […]

tau protein [4] = biological target: T3, tau protein (Homo sapiens, UniProt P10636); assay: Tau degradation assay (western blot) in non-mutant control human neurons; assay type: cell-based
T3 construct: Four-week differentiated neurons, both non-mutant (8330-8) and tau-A152T (19-5-RC6) were employed; endogenous in cells; host or cells: human differentiated non-mutant control neurons (8330-8, 8330-8-RC1, CTR2-L17-RC2)
T3 sequence (P10636 1-441 isoform P10636-8): as the sequence (P10636 1-441 isoform P10636-8 A152T) above, with T152A counted along it
Description: as §1
Example compounds 2-5 were again evaluated in tau degradation assays in non-mutant control, A152T and P301L neurons (6-week differentiated). Non-mutant neurons were employed as a negative control since derivatives of T807 should not recognize non-disease states of tau based upon how the series was identified, using selection for binding to pathological forms of tau in post-mortem brain lysates and tissue slices. […] Supernatants were transferred to new tubes, total protein concentration was quantified with the Pierce BCA Protein Assay Kit (Thermo), and SDS-PAGE gels were loaded with 10 μg total protein per well (pre-boiled samples). […] Protein band intensities (pixel mean intensity) were quantified using Adobe Photoshop CS5 Histogram function. […]

A152T neurons [5] = test system: A152T neurons

dose-dependency of effect on tau (tau protein [1]; 6-week differentiated A152T neurons, treatment for 24 hours, FIG. 6): dose dependent effect on tau
Molecule: O=C(CCc1ccc2c(c1)[nH]c1ccncc12)NCCOCCNc1cccc2c1C(=O)N(C1CCC(=O)NC1=O)C2=O (stereo not shown) [Compound 2, N-(2-(2-((2-(2,6-dioxopiperidin-3-yl)-1,3-dioxoisoindolin-4-yl)amino)ethoxy)ethyl)-3-(5H-pyrido[4,3-b]indol-7-yl)propanamide]
effect on neuronal viability (A152T neurons [2]): no effect on neuronal viability

Molecule: Fc1ccc(-c2ccc3c(c2)[nH]c2ccncc23)cn1 [Compound T807]
effect on total tau and phospho-tau (S396) levels (tau protein [1]; A152T neurons, 6-week differentiated, 1 μM, FIG. 5): no effect | effect on total tau and phosphorylated tau levels (tau protein [1]; tau-A152T (19-5-RC6) neurons, four-week differentiated, 24 h at 10 μg/mL=59.4 μM, FIG. 3): No significant tau lowering activity; also recorded: no effect on tau levels and did not degrade tau | effect on total tau and phospho-tau (S396) levels (tau protein [3]; P301L neurons, 6-week differentiated, 1 μM, FIG. 5): no effect | effect on total tau and phosphorylated tau levels (tau protein [4]; non-mutant (8330-8) neurons, four-week differentiated, 24 h at 10 μg/mL=59.4 μM, FIG. 3): No significant tau lowering activity; also recorded: no effect on tau levels and did not degrade tau | effect on total tau and phospho-tau (S396) levels (tau protein [4]; non-mutant control neurons, 6-week differentiated, 1 μM, FIG. 5): no effect

Molecule: Nc1cccc2c1CN(C1CCC(=O)NC1=O)C2=O (stereo not shown) [Lenalidomide]
effect on total tau and hyperphosphorylated tau levels (tau protein [1]; tau-A152T neurons, 5-week differentiated, 24 h treatment, 0.1, 1, 5 or 10 μM (lenalidomide 1 or 10 μM), TAU5, pSer396): no effect on tau levels | effect on total tau and hyperphosphorylated tau levels (tau protein [3]; tau-P301L neurons, 8-week differentiated, 24 h treatment, 0.1, 1, 5 or 10 μM (lenalidomide 1 or 10 μM), TAU5, pSer396): no effect on tau levels

Molecule: N-(17-(2-((2-(2,6-dioxopiperidin-3-yl)-1,3-dioxoisoindolin-4-yl)amino)-3,6,9,12,15-pentaoxaheptadecyl)-3-(5H-pyrido[4,3-b]indol-7-yl)propanamide [Compound 5]
effect on neuronal viability (A152T neurons [5]): no effect on neuronal viability
